Biological target: T1, Human pyruvate kinase R (PKR) (Homo sapiens, UniProt P30613)
T1 construct: Human pyruvate kinase R (PKR), residues 14-574; 6x-His (N, cleaved yes); 8x-Arg (N, cleaved yes); SUMO (N, cleaved yes); host or cells: E. coli
Assay: Biochemical assay for activation of pyruvate kinase R (Kinase-Glo luminescence, ATP generation)
Conditions: for AC50: 0.1 nM PKR, 2 mM FBP, 0.3 mM ADP, 0.1 mM PEP; for PKR % activation: maximal activation level relative to the activation level achieved by AG-348 @ 10 μM
Protocol: Proteins were translated as fusions with 6×-His, 8×-Arg, and SUMO at the N-terminus. […] All proteins were cloned, expressed in E. coli, and purified using similar protocols. Cells were grown at 30° C. in Luria-Bertani broth supplemented with 0.4% glucose to OD600=0.8 and induced with 0.4 mM IPTG at 16° C. for 18 hours. Cells were harvested by centrifugation, resuspended in 50 mM potassium phosphate pH 8.0, 500 mM NaCl, 25 mM imidazole pH 8.0, and 3 mM β-mercaptoethanol. Cells were lysed using a LM20 microfluidizer from Microfluidics (Westwood, Mass.). The crude lysate was immediately supplemented with 0.2 mM phenylmethylsulfonyl fluoride (PMSF) and centrifuged at 20,000 g for 20 minutes. The soluble fraction was subsequently incubated with 2 mL Ni-NTA (GE Healthcare) per 1,000 ODs for 1 hour at 4° C. Following incubation with the Ni-NTA resin, lysate was removed by pelleting resin at 2,500 g for 3 minutes and washed 3 times with 9 bed volumes of 50 mM potassium phosphate pH 8.0, 500 mM NaCl, 25 mM imidazole, and 3 mM β-mercaptoethanol. Following the batch wash Ni-NTA resin was loaded onto a gravity column and His-tagged protein was eluted with 6 bed volumes of 10 mM Tris/HCl pH 8.0, 200 mM NaCl, 500 mM imidazole, and 3 mM β-mercaptoethanol. Eluted protein was dialyzed overnight against 10 mM Tris/HCl pH 8.0, 200 mM NaCl, and 1 mM DTT and the 6×-His-8×-Arg-SUMO-tag was cleaved using a 20:1 molar ratio of protein:3C protease. The protein was purified by anion exchange chromatography on a HiTrapQ or MonoQ 10/100 GL column (GE Healthcare) via a linear NaCl gradient and twice by size exclusion chromatography using a Superdex S200 26/60 column (GE Healthcare) run in 10 mM Tris/HCl pH 8.0, 200 mM NaCl, 10 mM MgCl2, 1 mM DTT. Proteins were concentrated to ˜12 mg/mL for crystallization and flash frozen for storage.
Biochemical Assay for Activation of Pyruvate Kinase R
Activation of pyruvate kinase R (PKR) and pyruvate kinase M2 (PKM2) were measured using a luminescence based measurement of ATP generation and the Kinase-Glo luminescent kinase reagent kit.

T1 sequence (P30613 14-574): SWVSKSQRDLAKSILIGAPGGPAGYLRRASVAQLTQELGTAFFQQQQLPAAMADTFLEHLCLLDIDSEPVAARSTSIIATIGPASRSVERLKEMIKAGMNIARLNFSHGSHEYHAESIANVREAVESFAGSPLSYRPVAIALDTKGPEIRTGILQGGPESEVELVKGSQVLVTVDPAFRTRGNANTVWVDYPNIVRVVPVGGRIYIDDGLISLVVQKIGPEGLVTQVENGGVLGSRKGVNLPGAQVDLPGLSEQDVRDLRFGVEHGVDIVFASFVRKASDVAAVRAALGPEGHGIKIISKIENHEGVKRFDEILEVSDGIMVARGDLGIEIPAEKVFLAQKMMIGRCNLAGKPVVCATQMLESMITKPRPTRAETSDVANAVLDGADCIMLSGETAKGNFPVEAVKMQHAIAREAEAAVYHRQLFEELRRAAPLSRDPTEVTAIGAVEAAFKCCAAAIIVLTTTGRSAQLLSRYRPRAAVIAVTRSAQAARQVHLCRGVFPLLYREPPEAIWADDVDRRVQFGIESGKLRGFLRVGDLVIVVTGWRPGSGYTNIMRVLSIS

| Compound | AC50 [nM] | PKR % activation [%] |
| --- | --- | --- |
| O=C(N1Cc2cn(S(=O)(=O)c3ccc4ncsc4c3)nc2C1)[C@@]1(c2ccccc2)CCCN1 (single isomer, unassigned) [Compound 61, 6-({5-[(2S)-2-phenylpyrrolidine-2-carbonyl]-2H,4H,5H,6H-pyrrolo[3,4-c]pyrazol-2-yl}sulfonyl)-1,3-benzothiazole or 6-({5-[(2R)-2-phenylpyrrolidine-2-carbonyl]-2H,4H,5H,6H-pyrrolo[3,4-c]pyrazol-2-yl}sulfonyl)-1,3-benzothiazole] | 452 | 48 |
| C[C@@H](O)[C@H](C(=O)N1Cc2cn(S(=O)(=O)c3ccc4cn[nH]c4c3)nc2C1)c1ccccc1 (single isomer, unassigned) [Compound 62] | 47 | 115 |
| C[C@@H](O)[C@@H](C(=O)N1Cc2cn(S(=O)(=O)c3ccc(OC(F)F)cc3)nc2C1)c1ccccc1Cl (single isomer, unassigned) [Compound 66] | 13 | 142 |
| C[C@@H](O)[C@@H](C(=O)N1Cc2cn(S(=O)(=O)c3ccc(OC(F)F)cc3)nc2C1)c1ccccc1Cl (single isomer, unassigned) [Compound 68] | 10 | 179 |
| C[C@@H](O)[C@@H](C(=O)N1Cc2cn(S(=O)(=O)c3cnc4c(c3)OCCO4)nc2C1)c1ccccc1Cl (single isomer, unassigned) [Compound 70] | 15 | 80 |
| O=C(C(CO)c1ccccc1Cl)N1Cc2cn(S(=O)(=O)c3cnc4c(c3)OCCO4)nc2C1 (single isomer, unassigned) [Compound 71, (2S,3R)-2-(2-chlorophenyl)-1-(2-[2H,3H[1,4]dioxino[2,3-b]pyridine-7-sulfonyl]-4H,6H-pyrrolo[3,4-c]pyrazol-5-yl)-3-hydroxybutan-1-one or (2R,3R)-2-(2-chlorophenyl)-1-(2-[2H,3H-[1,4]dioxino[2,3-b]pyridine-7-sulfonyl]-4H,6H-pyrrolo[3,4-c]pyrazol-5-yl)-3-hydroxybutan-1-one] | 8.9 |  |
| O=C1CN([C@@H](C(=O)N2Cc3cn(S(=O)(=O)c4ccc(OC(F)F)cc4)nc3C2)c2ccccc2)C1 (single isomer, unassigned) [Compound 92, 1-[(1R)-2-{2-[4-(difluoromethoxy)benzenesulfonyl]-2H,4H,5H,6H-pyrrolo[3,4-c]pyrazol-5-yl}-2-oxo-1-phenylethyl]azetidin-3-one or 1-[(1S)-2-{2-[4-(difluoromethoxy)benzenesulfonyl]-2H,4H,5H,6H-pyrrolo[3,4-c]pyrazol-5-yl}-2-oxo-1-phenylethyl]azetidin-3-one] | 800 | 120 |
| O=C1CN([C@@H](C(=O)N2Cc3cn(S(=O)(=O)c4ccc(OC(F)F)cc4)nc3C2)c2ccccc2)C1 (single isomer, unassigned) [Compound 93, 1-[(1R)-2-{2-[4-(difluoromethoxy)benzenesulfonyl]-2H,4H,5H,6H-pyrrolo[3,4-c]pyrazol-5-yl}-2-oxo-1-phenylethyl]azetidin-3-one or 1-[(1S)-2-{2-[4-(difluoromethoxy)benzenesulfonyl]-2H,4H,5H,6H-pyrrolo[3,4-c]pyrazol-5-yl}-2-oxo-1-phenylethyl]azetidin-3-one] | 5550 | 84 |
| O=C([C@@H](c1ccccc1)N1CCC1=O)N1Cc2cn(S(=O)(=O)c3ccc(OC(F)F)cc3)nc2C1 (single isomer, unassigned) [Compound 99, 1-[(1R)-2-{2[4-(difluoromethoxy)benzenesulfonyl]-2H,4H,5H,6H-pyrrolo[3,4-c]pyrazol-5-yl}-2-oxo-1-phenylethyl]azetidin-2-one or 1-[(1S)-2-{2-[4-(difluoromethoxy)benzenesulfonyl]-2H,4H,5H,6H-pyrrolo[3,4-c]pyrazol-5-yl}-2-oxo-1-phenylethyl]azetidin-2-one] | 190 | 92 |
| O=C([C@@H](c1ccccc1)N1CCC1=O)N1Cc2cn(S(=O)(=O)c3ccc(OC(F)F)cc3)nc2C1 (single isomer, unassigned) [Compound 100, 1-[(1R)-2-{2-[4-(difluoromethoxy)benzenesulfonyl]-2H,4H,5H,6H-pyrrolo[3,4-c]pyrazol-5-yl}-2-oxo-1-phenylethyl]azetidin-2-one or 1-[(1S)-2-{2-[4-(difluoromethoxy)benzenesulfonyl]-2H,4H,5H,6H-pyrrolo[3,4-c]pyrazol-5-yl}-2-oxo-1-phenylethyl]azetidin-2-one] | > 10000 | 0 |
| O=C([C@@H](c1ccccc1)N1CCOCC1)N1Cc2cn(S(=O)(=O)c3ccc(OC(F)F)cc3)nc2C1 (single isomer, unassigned) [Compound 107, (2R)-1-{2-[4-(difluoromethoxy)benzenesulfonyl]-2H,4H,5H,6H-pyrrolo[3,4-c]pyrazol-5-yl}-2-(morpholin-4-yl)-2-phenylethan-1-one or (2S)-1-{2-[4-(difluoromethoxy)benzenesulfonyl]-2H,4H,5H,6H-pyrrolo[3,4-c]pyrazol-5-yl}-2-(morpholin-4-yl)-2-phenylethan-1-one] | > 10000 | 0 |

Second part, the molecule after the results:

| AC50 [nM] | PKR % activation [%] | Compound |
| --- | --- | --- |
| 4.7 |  | CC(O)C(C(=O)N1Cc2cn(S(=O)(=O)c3ccc4ncsc4c3)nc2C1)c1ccccc1Cl (single isomer, unassigned) [Compound 69] |
| 8.5 | 100 | O=C([C@H](O)c1ncccc1F)N1Cc2cn(S(=O)(=O)c3ccc4ncsc4c3)nc2C1 (single isomer, unassigned) [Compound 74, (2R)-1-[2-(1,3-benzothiazole-6-sulfonyl)-2H,4H,5H,6H-pyrrolo[3,4-c]pyrazol-5-yl]-2-(3-fluoropyridin-2-yl)-2-hydroxyethan-1-one or (2S)-1-[2-(1,3-benzothiazole-6-sulfonyl)-2H,4H,5H,6H-pyrrolo[3,4-c]pyrazol-5-yl]-2-(3-fluoropyridin-2-yl)-2-hydroxyethan-1-one] |
| 25 | 156 | COc1ccc(S(=O)(=O)n2cc3c(n2)CN(C(=O)[C@H](O)c2ncccc2F)C3)cc1 (single isomer, unassigned) [Compound 87, (2R)-2-(3-fluoropyridin-2-yl)-2-hydroxy-1-[2-(4-methoxybenzenesulfonyl)-2H,4H,5H,6H-pyrrolo[3,4-c]pyrazol-5-yl]ethan-1-one or (2R)-2-(3-fluoropyridin-2-yl)-2-hydroxy-1-[2-(4-methoxybenzenesulfonyl)-2H,4H,5H,6H-pyrrolo[3,4-c]pyrazol-5-yl]ethan-1-one] |
| 7.9 | 132 | O=C([C@H](CO)c1ncccc1F)N1Cc2cn(S(=O)(=O)c3ccc(OC(F)F)cc3)nc2C1 (single isomer, unassigned) [Compound 89, (2S)-1-{2-[4-(difluoromethoxy)benzenesulfonyl]-2H,4H,5H,6H-pyrrolo [3,4-c]pyrazol-5-yl}-2-(3-fluoropyridin-2-yl)-3-hydroxypropan-1-one or (2R)-1-{2-[4-(difluoromethoxy)benzenesulfonyl]-2H,4H,5H,6H-pyrrolo[3,4-c]pyrazol-5-yl}-2-(3-fluoropyridin-2-yl)-3-hydroxypropan-1-one] |
| 12 | 81 | O=C([C@H](CO)c1ncccc1F)N1Cc2cn(S(=O)(=O)c3ccc4ncccc4c3)nc2C1 (single isomer, unassigned) [Compound 102, (2S)-2-(3-fluoropyridin-2-yl)-3-hydroxy-1-[2-(quinoline-6-sulfonyl)-2H,4H,5H,6H-pyrrolo[3,4-c]pyrazol-5-yl]propan-1-one or (2R)-2-(3-fluoropyridin-2-yl)-3-hydroxy-1-[2-(quinoline-6-sulfonyl)-2H,4H,5H,6H-pyrrolo[3,4-c]pyrazol-5-yl]propan-1-one] |
| 220 | 41 | O=C([C@H](CO)c1ncccc1F)N1Cc2cn(S(=O)(=O)c3ccc4ncccc4c3)nc2C1 (single isomer, unassigned) [Compound 103, (2S)-2-(3-fluoropyridin-2-yl)-3-hydroxy-1-[2-(quinoline-6-sulfonyl)-2H,4H,5H,6H-pyrrolo[3,4-c]pyrazol-5-yl]propan-1-one or (2R)-2-(3-fluoropyridin-2-yl)-3-hydroxy-1-[2-(quinoline-6-sulfonyl)-2H,4H,5H,6H-pyrrolo[3,4-c]pyrazol-5-yl]propan-1-one] |

Source: patent US20230159538A1, “PYRROLIDINE-PYRAZOLES AS PYRUVATE KINASE ACTIVATORS” (Global Blood Therapeutics, Inc., priority 2020, published 2023)
